The test system of series [1] is HNE-induced hemorrhage in the lung. In words: Neutrophil elastase-induced lung hemorrhagic assay. The class given is in vivo. As to conditions: Mus musculus, iv, 10 mg/kg intravenously to male balb/c mice 10 min before intratracheal HNE, hemoglobin in BALF 3 h after HNE, vs vehicle-treated controls, read-out: % Inhibition in Murine Lung Hemorrhage Model @ 10 mg/kg. An excerpt:
Neutrophil Elastase-Induced Lung Hemorrhagic Assay
This in vivo assay is based on estimating the amount of hemorrhage in the lung following intratracheal administration of human neutrophil elastase (HNE). Hemorrhage is quantified by measuring the concentration of hemoglobin in the bronchoalveolar lavage fluid (BALF).
DMSO or saline served as vehicle controls. Mice were anesthetized with halothane and the trachea exposed by a small incision in the neck. Ten minutes after compound administration, mice received 7.5 units/animal of HNE (Elastin Products Co.) dissolved in […] saline. Three hours after HNE instillation, the animals were euthanized with an overdose of urethane. […] Triton X-100 was added to the collected BALF at a final concentration of 0.2% (v/v) to ensure cell disruption.

Series [2] concerns the target T1, Human sputum neutrophil elastase (Homo sapiens, UniProt P08246).
T1 construct: purchased Elastin Products Co; host or cells: human sputum (natural source)
T1 sequence (P08246 30-247 limits assumed): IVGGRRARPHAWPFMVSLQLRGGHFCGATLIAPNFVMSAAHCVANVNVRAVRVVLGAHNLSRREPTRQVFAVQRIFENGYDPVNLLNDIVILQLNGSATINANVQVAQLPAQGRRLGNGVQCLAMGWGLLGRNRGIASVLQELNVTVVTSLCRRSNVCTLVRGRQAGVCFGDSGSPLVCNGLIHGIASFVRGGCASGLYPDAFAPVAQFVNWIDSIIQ
In words: Inhibitor IC50 against human neutrophil elastase (fluorogenic MeOSuc-AAPV-AMC substrate). It is filed as biochemical. As to conditions: 20 min preincubation, read-out: HNE IC50. Summed up: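 Enzyme from human sputum in 200 mM Tris pH 7.4 with 1 mg/ml BSA; MeOSuc-AAPV-AMC at 1×10^−4 M final. Reaction ran 20 min at room temperature, then quenched with 3% (v/v) acetic acid. IC50 from Hill fit of fluorescence versus inhibitor concentration.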

Series [3] has as its system LPS-induced increase of lung permeability (Evan's blue dye leakage). In words: Acute lung injury model (lung permeability assay). As to conditions: male Wistar rats, intratracheal LPS, intravenous infusion 10 mg/kg/hr over 6 hours, Evan's blue dye content of lung. It is filed as in vivo. On the procedure: Acute Lung Injury Model (Lung Permeability Assay)
Adult male Wistar rats (200-250 g) were anesthetized with an intraperitoneal of pentobarbital (30 mg/kg). Under the anesthesia, lipopolysaccharide (LPS) ([…]) or physiological saline (100 μL/animal) was intratracheally injected. Increase of lung permeability after LPS instillation was measured by Evan's blue dye (EBD) leakage from blood. EBD (40 mg/5 mL/kg) was administered via tail vein 5 hours after the LPS challenge. At 6 hours, animals were exsanguinated by cardiac puncture under deep anesthesia and the pulmonary vessels were perfused with 20 mL saline to ensure the removal of EBD from the vascular spaces. Lungs were removed and EBD was extracted in 6 mL formamide at 65° C. overnight. EBD content was determined by measuring absorbance at 620 nm using a spectrophotometer. The test compound was dissolved in saline with a small amount of 1 N HCl and continuously infused intravenously at a rate of 10 mg/kg/hr over 6 hours starting just after LPS challenge.

Several values for one entry are separate records, joined by “and”; a condition that tells them apart may be missing. Equal values may be shown once. Where a name gives a salt, the structure may show the parent alone.

For `CCc1cc(OC)cc2nc(-c3cccnc3N3CC[C@H](N(C)C)C3)oc(=O)c12` (as salt: methanesulfonate) (hydrate or solvate) [Compound 132, 2-[2-((S)-3-Dimethylamino-pyrrolidin-1-yl)-pyridin-3-yl]-5-ethyl-7-methoxy-4H-benz[d][1,3]oxazin-4-one], the melting point is 43 to 49 °C.

Molecule `CCc1cc(OC)cc2nc(-c3cccnc3N3CC[C@H](N(C)C)C3)oc(=O)c12` (as salt: salt) (hydrate or solvate) [Compound 132, 2-[2-((S)-3-Dimethylamino-pyrrolidin-1-yl)-pyridin-3-yl]-5-ethyl-7-methoxy-4H-benz[d][1,3]oxazin-4-one] had a melting point of 150 to 159 °C.

Regarding `CCc1cc(OC)cc2nc(-c3cccnc3N3CC[C@H](N(C)C)C3)oc(=O)c12` (as salt: tartrate) (hydrate or solvate) [Compound 132, 2-[2-((S)-3-Dimethylamino-pyrrolidin-1-yl)-pyridin-3-yl]-5-ethyl-7-methoxy-4H-benz[d][1,3]oxazin-4-one], the melting point is 148 to 155 °C and 144 to 145 °C.

For the molecule `CCc1cc(OC)cc2nc(-c3cccnc3N3CC[C@H](N(C)C)C3)oc(=O)c12` (as salt: trifluoroacetate) [Compound 132, 2-[2-((S)-3-Dimethylamino-pyrrolidin-1-yl)-pyridin-3-yl]-5-ethyl-7-methoxy-4H-benz[d][1,3]oxazin-4-one], the melting point lay in the range of 117 to 119 °C.

In the case of `Cc1cccc2nc(-c3ccccn3)oc(=O)c12` [Compound 4], the inhibition in vivo at 10 mg/kg in series [1] was above 30%. The IC50 in series [2] was above 150 nM.

`Cc1cccnc1-c1nc2cccc(Cl)c2c(=O)o1` [Compound 18]: the inhibition in vivo at 10 mg/kg in series [1] is below 10%. Moreover, the IC50 in series [2] fell in the range of 16 to 60 nM.

On to `Cc1cccc2nc(-c3cccnc3Oc3ccc(Cl)cc3)oc(=O)c12` [Compound 21], for which the inhibition in vivo at 10 mg/kg in series [1] is below 10%. Besides, the IC50 in series [2] lay in the range of 16 to 60 nM.

For `O=c1oc(-c2cccnc2Oc2ccc(F)cc2)nc2cccc(Cl)c12` [Compound 26], the inhibition in vivo at 10 mg/kg in series [1] was in the range of 11 to 30%. Besides, the IC50 in series [2] was 61 to 150 nM.

As to `Cc1cccc2nc(-c3cccnc3Oc3ccc(F)cc3)oc(=O)c12` [Compound 36], the inhibition in vivo at 10 mg/kg in series [1] is above 30%. Further, the IC50 in series [2] is 16 to 60 nM.

Consider `O=c1oc(-c2cccnc2Oc2ccccc2)nc2cccc(C(F)(F)F)c12` [Compound 39], for which, in series [1], the inhibition in vivo at 10 mg/kg was above 30%. The IC50 in series [2] was below 15 nM.

Regarding `COCCN1CCN(c2ncccc2-c2nc3cccc(C)c3c(=O)o2)CC1` [Compound 44], in series [1], the inhibition in vivo at 10 mg/kg was 11 to 30%. Besides, the IC50 in series [2] fell in the range of 16 to 60 nM.

For the molecule `Cc1cccc2nc(-c3cccnc3N3CCC(N(C)C)C3)oc(=O)c12` (stereo not drawn) [Compound 46, 2-[2-(3-Dimethylamino-pyrrolidin-1-yl)-pyridin-3-yl]-5-methyl-4H-benz[d][1,3]oxazin-4-one], the inhibition in vivo at 10 mg/kg in series [1] was above 30%. Moreover, in series [2], the IC50 lay within 61 to 150 nM.

For `Cc1cccc2nc(-c3cccnc3N3CCCC(N(C)C)C3)oc(=O)c12` (stereo not drawn) [Compound 49], the inhibition in vivo at 10 mg/kg in series [1] was below 10%. In addition, the IC50 in series [2] was in the range of 61 to 150 nM.

For the molecule `Cc1cccc2nc(-c3cccnc3N3CCN(C)C(C)C3)oc(=O)c12` (stereo not drawn) [Compound 50], the inhibition in vivo at 10 mg/kg in series [1] lay in the range of 11 to 30%. For the same molecule, the IC50 in series [2] is above 150 nM.

`COCCOCCOCCOCCOc1ncccc1-c1nc2cccc(C)c2c(=O)o1` [Compound 52, 2-[2-(2-{2-[2-(2-Methoxy-ethoxy)-ethoxy]-ethoxy}-ethoxy)-pyridin-3-yl]-5-methyl-4H-benz[d][1,3]oxazin-4-one]: the inhibition in vivo at 10 mg/kg in series [1] lay in the range of 11 to 30%. The IC50 in series [2] was 16 to 60 nM.

On to `Cc1cccc2nc(-c3cccnc3N(C)C3CCN(C)C3)oc(=O)c12` (stereo not drawn) [Compound 53], for which the inhibition in vivo at 10 mg/kg in series [1] was in the range of 11 to 30%. For the same molecule, the IC50 in series [2] lay in the range of 61 to 150 nM.

For `Cc1cccc2nc(-c3cccnc3N3CCN(CC4CC4)CC3)oc(=O)c12` [Compound 54], the inhibition in vivo at 10 mg/kg in series [1] was above 30%. Besides, the IC50 in series [2] is above 150 nM.

As to `CCc1cc(OC)cc2nc(-c3cccnc3N3CC[C@H](N(C)C)C3)oc(=O)c12` [Compound 132, 2-[2-((S)-3-Dimethylamino-pyrrolidin-1-yl)-pyridin-3-yl]-5-ethyl-7-methoxy-4H-benz[d][1,3]oxazin-4-one], the “% Inhibition in the ALI model” value in series [3] is “C (C>30)”. Moreover, the IC50 in series [2] is below 15 nM.

In the case of `CCc1cc(OC)cc2nc(-c3cccnc3N3CCN(CCOC)CC3)oc(=O)c12` [Compound 134], the “% Inhibition in the ALI model” value in series [3] is reported as “B (B=11-30)”.
